Values quoted from earlier work as cited in US20230174569A1, “PROCESS PER PREPARING (3a,5a)-20-OXOPREGNAN-3-YL GLYCYL-L-VALINATE HYDROCHLORIDE” ([…] S.R.L., priority 2021, published 2023).
Structures can show the parent of a compound that is named as a salt.

Assays:
[1] = compared with Brexanolone
[2] = compared with Brexanolone; remark: listed apart in the source

CC(=O)[C@H]1CC[C@H]2[C@@H]3CC[C@H]4C[C@H](OC(=O)[C@@H](NC(=O)CN)C(C)C)CC[C@]4(C)[C@H]3CC[C@]12C [compound I, (3α,5α)-20-oxopregnan-3-yl glycyl-L-valinate hydrochloride]
storage stability in aqueous solutions [1]: better profile than Brexanolone | water solubility [2]: better profile than Brexanolone
